# Data taken from patent publication US20260083751A1, “ALLOSTERIC MODULATORS OF ANDROGEN RECEPTOR COACTIVATOR RECRUITMENT FOR CRPC THERAPY” (University of Pittsburgh – Of the Commonwealth System of …, priority 2022, published 2026).
# Like-named read-outs stand apart in the source and are kept apart here.
# Key:
# AR-TIF2 PPI = target: T1, AR-TIF2 PPI (Homo sapiens, UniProt P10275); assay: AR-TIF2 PPIB HCS assay: inhibition of DHT-induced AR-TIF2 PPI formation (compound then DHT); assay type: cell-based; details: U-2 OS cells
# T1 construct: AR-LBD residues (662-919) were incorporated into one biosensor; expressed in transfected cells; host or cells: U-2 OS osteosarcoma cells, coinfected with recombinant adenoviruses
# T1 sequence (P10275 662-919): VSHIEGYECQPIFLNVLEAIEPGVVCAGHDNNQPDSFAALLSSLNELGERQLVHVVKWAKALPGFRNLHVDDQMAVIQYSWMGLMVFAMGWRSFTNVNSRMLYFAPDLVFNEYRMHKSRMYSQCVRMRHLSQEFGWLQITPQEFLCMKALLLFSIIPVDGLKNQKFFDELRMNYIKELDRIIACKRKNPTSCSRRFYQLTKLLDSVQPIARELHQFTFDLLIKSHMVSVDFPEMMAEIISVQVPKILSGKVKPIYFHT
# Experimental: AR-TIF2 Protein-Protein Interaction Biosensor Assay: The AR-TIF2 PPIB HCS assay was performed in U-2 OS osteosarcoma cells as described previously (Fancher et al., Assay Drug Dev Technol. 2016, 14:453-477; Fancher et al., Assay Drug Dev Technol. 2018, 16:297-319; Hua et al., Assay Drug Dev Technol. 2014, 12:395-418; Hua et al., Methods Mol Biol. 2018, 1683:211-227). Briefly, U-2 OS cells were coinfected with recombinant adenovirus biosensor expression constructs and seeded at 2,500 cells per well in 384-well collagen-coated microplates (Greiner Bio-One #781956) and plates were incubated overnight at 37° C. in 5% CO2 and 95% humidity. […] After the appropriate time, assay plates were fixed by transfer of 50 μL of pre-warmed (37° C.) 7.4% formaldehyde and 2 μg/mL Hoechst 33342 in PBS and incubation at room temperature for 30 minutes. Liquid was aspirated, plates were washed twice with 85 μL PBS, leaving the final wash in the plate. Plates were sealed with adhesive aluminum plate seals, and fluorescent images of three fields of view were acquired in the DAPI (Hoechst stained nuclei), FITC (TIF2-GFP) and Texas Red (AR-RFP) channels on an ImageXpress® Micro (IXM) automated HCS platform (Molecular Devices LLC, Sunnyvale, CA) using a 10× Plan Fluor 0.3 NA objective. Images were analyzed using the Translocation Enhanced (TE) image analysis module of the MetaXpress® software (Molecular Devices, LLC, San Jose, CA) as described previously (Fancher et al., Assay Drug Dev Technol. 2016, 14:453-477; Fancher et al., Assay Drug Dev Technol. 2018, 16:297-319; Hua et al., Assay Drug Dev Technol. 2014, 12:395-418; Hua et al., Methods Mol Biol. 2018, 1683:211-227).
# For the 96-well AR-LBD H^3-DHT radioligand binding assay, eight minimum and maximum plate control wells were utilized to normalize the data. For the PC cell line growth inhibition assays the DMSO control data from the TO and T72 assay plates was used to assess the dynamic range of the T0 to T72 cell growth, and to calculate S:B ratios and Z′-factor coefficient statistics for the assay signal window (T0 to T72). To normalize the 72 h compound exposure PC growth inhibition data, the signals from the compound treated wells were processed and expressed as % of the T72 DMSO plate controls. IC50 and GI50 values for each of the bioassays were calculated using GraphPad Prism 9 software to plot and fit data to curves using the Sigmoidal dose response variable slope equation Y=Bottom+[Top-Bottom]/[1+10^(Log EC50−X)*HillSlope].
# A positional AR-TFI2 protein-protein interaction biosensor (PPIB) assay was used to identify small molecules that inhibited DHT-induced formation of AR-TIF2 PPIs and/or disrupted pre-existing AR-TIF2 PPIs (Fancher et al., Assay Drug Dev Technol 2016, 14(8):453-477; Fancher et al., Assay Drug Dev Technol 2018, 16(6):297-319; Hua et al., Assay Drug Dev Technol 2014, 12:395-418; Hua et al., Methods Mol biol 2018, 1683:211-227). AR-LBD residues (662-919) were incorporated into one biosensor and TIF2 residues (725-840) containing the 3rd NR box LXXLL motif into the second interacting biosensor partner (Id.) The AR-TIF2 PPIB recapitulates the orthosteric ligand (OSL)-induced translocation of AR from the cytoplasm into the nucleus where PPIs with TIF2 result in colocalization of both biosensors in the nucleolus. Using three libraries, a total of 143,535 compounds were screened—a 10,000-compound ChemDiv PPI focused diversity library, a 50,000-compound ChemBridge diversity library, and a 83,535-compound library provided by the NCI's Chemical Biology Consortium. The 10K and 50K diversity libraries were subsets of 142K and 810K parent libraries, enabling screening of a representative subset of >1×10^6 compounds. AR-TIF2 PPI inhibitor and disruptor actives were confirmed in the HCS assay and counter screens designed to identify and exclude nuisance/interference or non-selective compounds (Fancher et al., Assay Drug Dev Technol 2018, 16(6):297-319). […]
# [1] = test system: UBE2C promoter-driven transcription in PC3-AR-V7-GFP cells; assay: UBE2C promoter driven luciferase reporter assay in PC3-AR-V7-GFP cells; assay type: cell-based
# Experimental: UBE2C Promoter Driven Luciferase Reporter Assay in PC3-AR-V7-GFP Cells: The pGL4.28-UBE2C 20bpX3 luciferase reporter plasmid (Xu et al., Cancer Res 2015, 75:3663-71) was provided by Dr. Yan Dong from Tulane University. FuGENE® HD transfection agent and the UBE2C-Luc plasmid (10 ng/well) were combined at a 3:1 (μL:μg) ratio, in Opti-MEM™ medium and incubated for 25 min at RT before being added to PC3-AR-V7-GFP cells that were suspended in RPMI 1640 (Gibco) media containing 1% L-glutamine (Invitrogen), and 10% fetal bovine serum (Gemini Bio-products). Bulk transfected PC3-AR-V7-GFP cells were seeded into white opaque 384-well assay plates (Greiner Bio-one, #781080) at a density of 3,000 cell per well in a volume of […] and incubated at 5% CO2, 37° C., and 95% humidity for 24 h. After 24 h, 10 μL of compounds were transferred to assay wells and the plates were returned to the incubator for an additional 24 h before 25 μL of BrightGlo® luciferase reagent (Promega) was added to the wells and the RLU's were captured on a SpectraMax® M5e plate reader (Molecular Devices LLC) as described previously (Ibid.).
# [2] = 25 nM DHT, read-out: Inhibition DHT-induced AR-TIF2 PPI Formation IC50
# [3] = compound then DHT, read-out: C then D IC50
# [4] = PC3-AR-V7-GFP cells, constitutive, read-out: Inhibition AR-V7 UBE2C-reporter IC50
# [5] = 24 h, 24 h exposure, read-out: IC50 in UBE2C-Luc AR-V7 reporter assay (potency range in words)
Compound,IC50 (AR-TIF2 PPI; [2]) [µM],IC50 (AR-TIF2 PPI; [3]) [µM],"IC50 [1, 4] [µM]","IC50 [1, 5] [µM]"
Cc1ccccc1-c1cc(O)c2c(c1)CN(c1nccs1)CCO2 [Compound S1-3],,30.5,,
Cc1ccccc1-c1cc(O)c2c(c1)CN(c1cc(N)ncn1)CCO2 [Compound S1-4],> 100,> 100,,
COc1cc(-c2ccc(C)s2)cc2c1OCCN(c1nc(C(N)=O)cs1)C2 [Compound S1-5],,26.2,,
Cc1nsc(NC(=O)N2CCC(Sc3ccccc3C)CC2)n1 [Compound S2-6],0.62,,~15,
Cc1nsc(NC(=O)N2CCC(Cn3ccnc3)CC2)n1 [Compound S2-7],> 100,> 100,,
CNC(=O)c1ccc(-c2c[nH]c3c(C)cccc23)cc1 [Compound S3-21],~36,36.1,> 100,

# Now from value to compound:
IC50 (AR-TIF2 PPI; [2]) [µM],IC50 (AR-TIF2 PPI; [3]) [µM],"IC50 [1, 4] [µM]","IC50 [1, 5] [µM]",Compound
5.38,5.64,< 35,,Cc1ccccc1-c1cc(O)c2c(c1)CN(c1nc(C(N)=O)cs1)CCO2 [Compound S1-1]
,14.5,8.3,,Cc1nc(N)cc(N2CCOc3c(O)cc(-c4ccccc4C)cc3C2)n1 [Compound S1-2]
3.11,3.25,12,10 to 100,Cc1c(-c2ccccc2F)[nH]c2ccc(CNC(=O)CCc3cn[nH]c3)cc12 [Compound S3-11]
,5.13,,10 to 100,Cc1c(-c2ccccc2F)[nH]c2ccc(CNC(=O)CCc3cnccn3)cc12 [Compound S3-12]
,7.98,> 100,,CC(=O)NCCC(=O)NCc1ccc2[nH]c(-c3ccccc3F)c(C)c2c1 [Compound S3-13]
,2.42,,10 to 100,Cc1c(-c2ccccc2F)[nH]c2ccc(CNC(=O)c3ccc(CO)o3)cc12 [Compound S3-14]
,6.7,,10 to 100,Cc1c(-c2ccc(F)cc2)[nH]c2ccc(CNC(=O)c3ccc(CO)o3)cc12 [Compound S3-15]
,3.87,,10 to 100,Cc1cccc2c(-c3ccc(O)c(F)c3)c[nH]c12 [Compound S3-17]
